Measured values published in US20060046972A1, “Cytotoxic nucleoside analog compound 003 for treating cancer” (Parker Hughes Institute, priority 2004, published 2006).
“Also recorded” adds a separate entry of the source. Read-outs that look alike come from different tables or passages of the source.

Legend:
[1] = test system: esterase-mediated metabolism of Compound 003 in BT20 cells; experiment: Inhibition of ala-AZT-MP formation by esterase inhibitors, BT20; format: cell-based, human
Experimental: (§1) BT20 breast cancer cells were cultured in a medium composed of MEM, 10% FBS, 0:1 mM of nonessential amino acids and Earles salts, and 1% penicillin/streptornyclin Nalm6 cells were maintained in a medium composed of RPMI, 10% fetal bovine serum (FBS) and 1% penicillin/streptomycin. BT20 cells were seeded in 6-cm petri-dishes at 4 million cells per plate. Nalm6 cells at a density of 10^6 cells per ml were also utilized in drug metabolism study. Either one plate of adherent cells or 10 million nonadherent cells were utilized at each experiment. Cells were incubated with DMSO or 100 μM of esterase inhibitor, paraoxon, bis(p-nitrophenyl)phosphate (BNPP), physostigmine, or phenylmethylsulfonyl fluoride (PMSF) (Sigma) for 3.0 minutes, followed by 1 hour incubation of 100 μM Compound 003. After incubation, cells were washed two times with ice-cold PBS, and extracted by addition of 60% methanol. Cell lysates were kept at −20° C. overnight, after which lysates were centrifuged at 15,000×g for 10 minutes to remove the cell debris. One hundred microliters of these lysates were injected directly to HPLC. The amount of metabolite product of the esterase reaction, ala-AZT-MP, was measured to examine the effect of inhibitors on esterase-mediated metabolism of Compound 003.

[2] = Wang et al. (1996); cited from earlier work
BT20 breast cancer cells = experiment: Confocal laser scanning microscopy of microtubules / mitotic spindle, BT20; format: cell-based, human; settings: 185 μM for 24 hours (AZT: similar concentrations)
Experimental: Immunofluorenscence was used to examine the spindle features of human cancer cell lines treated with Compound 003 or 0.5% DMSO. […] The coverslips were incubated with antibodies raised against α-tubulin, γ-tubulin (Sigma Chemical Co., St Louis, Mo.) (40 min 37° C.), washed in PBS-Tx-100, and incubated with an appropriate secondary antibody conjugated to FITC (Jackson ImmunoResearch, Westgrove, Pa.). Cellular DNA was labeled with 5 μM TOTO3 (Molecular Probes, Eugene, Oreg.) for 20 minutes. Coverslips were immediately inverted onto slides in Vectashield (Vector Labs, Burlingame, Calif.) to prevent photobleaching, sealed with nail varnish and stored at −20° C. The slides were examined using a Bio-Rad MRC-1024 Laser Scanning Confocal Microscope equipped with a Kr/Ar laser (BioRad, Hercules, Calif.) mounted on a Nikon Eclipse E800 upright microscope with high numerical aperture objectives (Nikon, Melville, N.Y.). Digital data were processed using Lasersharp (BioRad) and Adobe Photoshop software (Adobe Systems, Mountain View, Calif.). ( See, for example, Navara, et al., 2001, Anticancer Drugs. 12:369; Malaviya, et al., 2002, Leuk Lymphoma. 43, 1329; and Ghosh, 1998, Clin Cancer Res. 4, 2657).

[3] = Pharmacokinetics in CD-1 mice after intravenous or oral Compound 003; format: in vivo; settings: female, CD-1, mouse
Experimental: Each plasma sample (200 μL) was mixed 1:4 with acetone (800 μL) and vortexed for at least 30 seconds. Following centrifugation, the supernatant was transferred into a clean tube and dried under nitrogen. A 50 μL solution of 50% methanol in 200 mM HCl was used to reconstitute the extraction residue, and 35 μL was subjected to analytical HPLC. The analytical column used was a 250×4 mm Lichrospher 100, RP-18 (5 μm) and the guard column was a 4×4 mm Lichrospher 100, RP-18 (5 μm). The mobile phase was degassed automatically by the electronic degasser system. The column was equilibrated and eluted under gradient conditions utilizing a flow rate of 1.0 ml/min at ambient temperature. The linear gradient mobile phase was: 0 minute, 100% 10 mM ammonium phosphate buffer (pH 3.7); 20 minutes, 20% acetonitrile, 80% ammonium phosphate buffer (pH 3.7); 20.1-50 minutes, 28% acetonitrile, 72% water (0.1% HAC). The wavelength of detection was set at 270 nm. Peak width, response time and slit werep, set at >0.03 minutes, 0.5 s and 8 nm, respectively.
Female CD-1 mice (6-8 weeks old) (Charles River, Wilmington, Mass.) were housed in a USDA-accredited animal care facility under standard environmental conditions (12-h light/12-h dark photoperiod, 22±1° C., 60±10% relative humidity). All rodents were housed in microisolator cages (Lab Products, Inc., N.J.) containing autoclaved bedding. Mice were allowed free access to autoclaved pellet food and tap water throughout the study. All animal studies are approved by the Parker Hughes Institute Animal Care and Use Committee, and all animal care procedures conformed to the principles outlined in the Guide for the Care and Use of Laboratory Animals (National Research Council;. National Academy Press, Washington D.C. 1996).
Compound 003 (200 mg/kg) dissolved in DMSO was administered intravenously via tail vein to non-fasted mice or orally via gavage to 12-h fasted mice. Four to six mice per time-point were used for pharmacokinetic studies. Blood samples (˜500 μL) were obtained from the ocular venous plexus by retro-orbital venipuncture at 0, 5, 10, 15, 30, 45 minutes, and 1 h, 1.5 h, 2 h, 4 h, 6 h and 8 h after oral administration. All collected blood-samples were heparinized and centrifuged at 7000×g for 5 minutes to separate the plasma fraction from the whole blood. The plasma samples were then processed immediately using the extraction procedure described above.
Pharmacokinetic modeling and parameter calculations were carried out using the WinNonlin Professional Version 3.0 (Pharsight, Inc., Mountain, Calif.) pharmacokinetics software (Chen, C. L., et al., (1999) Pharm Res. 16:117; Chen, C. L., et al., (1999) Pharm Res. 16:1003; Uckun, F. M., et al., (1999) Clin Cancer Res. 5:2954). An appropriate model was chosen on the basis of the lowest sum of weighted squared residuals, the lowest Schwartz Criterion (SC), the lowest Akaike's Information Criterion (AIC) value, the lowest standard errors of the fitted parameters, and the dispersion of the residuals. The elimination half-life was estimated by linear regression analysis of the terminal phase of the plasma concentration-time profile. The systemic clearance (CL) was determined by dividing the dose by the AUC.

[4] = test system: esterase-mediated metabolism of Compound 003 in Nalm6 cells; experiment: Inhibition of ala-AZT-MP formation by esterase inhibitors, Nalm6; format: cell-based, human; settings: 100 μM inhibitor, then 100 μM Compound 003 1 hour
Experimental: as §1

[5] = test system: Nalm-6 B-lineage leukemia cell line; experiment: Intracellular metabolism of Compound 003 to ala-AZT-MP, Nalm6; format: in vitro ADME, human
Excerpt: (§2) Intracellular metabolism of Compound 003 was studied in CEM T-lineage lymphoma cell line, BT20 breast cancer cell line, T98 glioblastoma cell line, and Nalm-6 B-lineage leukemia cell line. CEM and Nalm6 cells were maintained in RPMI supplemented with 10% fetal bovine serum, and 1% penicillin/streptomycin. BT20 and T98 cells w.ere cultured in a medium composed of MEM, 10% fetal bovine serum, 0.1-mM of nonessential amino acids and Earles salts, and 1% penicillin/streptomycin. CEM and Nalm6 cells at a density of 10^6 cells per ml were utilized in the drug metabolism study. BT20 and T98 cells were seeded in 6-cm petri-dishes at 4 million cells and 2 million cells per plate, respectively, the day before the experiment. Either one plate of adherent cells or 10 million non-adherent cells was utilized at each time point. Cells were incubated with various concentrations of the compounds up to 24 hrs at 37° C. After incubation, cells were washed 2 times with ice-cold PBS, and extracted by addition of 0.5-1 ml of 60% methanol. […] With efflux experiments, cells 1×10^6/mL (the same density as in the uptake study) were incubated with 100 μM Compound 003 for 1 hr, washed 2 times with ice-cold PBS, and resuspended with culture medium without drug, and the metabolite efflux from cells to the medium was measured after 6 hr of incubation. […]

BT20 cells = experiment: Metabolite efflux from cells to the medium; format: in vitro ADME, human; settings: 100 μM Compound 003 1 hr, efflux after 6 hr
Excerpt: Intracellular metabolism of Compound 003 was studied in CEM T-lineage lymphoma cell line, BT20 breast cancer cell line, T98 glioblastoma cell line, and Nalm-6 B-lineage leukemia cell line. CEM and Nalm6 cells were maintained in RPMI supplemented with 10% fetal bovine serum, and 1% penicillin/streptomycin. BT20 and T98 cells w.ere cultured in a medium composed of MEM, 10% fetal bovine serum, 0.1-mM of nonessential amino acids and Earles salts, and 1% penicillin/streptomycin. CEM and Nalm6 cells at a density of 10^6 cells per ml were utilized in the drug metabolism study. BT20 and T98 cells were seeded in 6-cm petri-dishes at 4 million cells and 2 million cells per plate, respectively, the day before the experiment. Either one plate of adherent cells or 10 million non-adherent cells was utilized at each time point. Cells were incubated with various concentrations of the compounds up to 24 hrs at 37° C. After incubation, cells were washed 2 times with ice-cold PBS, and extracted by addition of 0.5-1 ml of 60% methanol. […] With efflux experiments, cells 1×10^6/mL (the same density as in the uptake study) were incubated with 100 μM Compound 003 for 1 hr, washed 2 times with ice-cold PBS, and resuspended with culture medium without drug, and the metabolite efflux from cells to the medium was measured after 6 hr of incubation.

[6] = test system: BT20 breast cancer cell line; experiment: Intracellular metabolism of Compound 003 to ala-AZT-MP, BT20; format: in vitro ADME, human
Excerpt: as §2, with “methanol. Cell lysates were kept at −20° C. overnight, after which lysates were centrifuged at 15000×g for 10 minutes to remove the cell debris. One hundred microliters of these lysates were injected directly to HPLC. For half-life study, cells at the same density as in drug metabolism study were treated with 100 μM Compound 003 for 2 hrs, after which cells were washed 2 times with ice-cold PBS, and resuspended in warm media until the time they were harvested. For uptake and efflux study, cells were seeded at 2 million cells in 2 ml of media.” for “methanol.”

[7] = test system: CEM T-lineage lymphoma cell line; experiment: Intracellular metabolism of Compound 003 to ala-AZT-MP, CEM; format: in vitro ADME, human
Excerpt: as §2

[8] = iv, plasma metabolite following i.v. 200 mg/kg Compound 003
[9] = iv, plasma metabolite following i.v. 200 mg/kg Compound 003, read-out: elimination half-life (t1/2)
[10] = po, plasma metabolite following p.o. 200 mg/kg Compound 003
[11] = plasma metabolite following oral 200 mg/kg Compound 003, read-out: elimination half-life

Structure (SMILES)	potency order of esterase inhibitors [1]	AUC [3, 8] [µM·h]	Cmax [3, 8] [µM]	Tmax [3, 8] [min]	half-life [3, 9] [min]	AUC [3, 10] [µM·h]	Cmax [3, 10] [µM]	Tmax [3, 10] [min]	half-life [3, 11] [min]	also measured
O=[N+]([O-])c1ccc(OP(=O)(O)Oc2ccc([N+](=O)[O-])cc2)cc1 [BNPP, Bis(p-nitrophenyl)phosphate]	paraoxon>BNPP>PMSF>physostigmine	–	–	–	–	–	–	–	–	–
O=S(=O)(F)Cc1ccccc1 [PMSF, phenylmethyl sulfonyl fluoride]	paraoxon>BNPP>PMSF>physostigmine	–	–	–	–	–	–	–	–	–
Cc1cn([C@H]2C[C@H](N=[N+]=[N-])[C@@H](CO)O2)c(=O)[nH]c1=O [AZT, 3′-azido-3′-deoxythymidine, reference compound]	–	152	64.3	50.4	35	386 ± 124	46.9	144	149	elimination t1/2 of AZT given as such [2]: ~21.2 min; effect on microtubules (BT20 breast cancer cells): no effect on microtubules
CCOP(=O)(OCC)Oc1ccc([N+](=O)[O-])cc1 [paraoxon]	paraoxon>BNPP>PMSF>physostigmine	–	–	–	–	–	–	–	–	inhibition of metabolism of Compound 003 to ala-AZT-MP [4]: most potent inhibitor; also recorded: only paraoxon was effective in inhibiting the metabolism
Cc1cn(C2CC(N=[N+]=[N-])C(COP(=O)(O)NC(C)C(=O)O)O2)c(=O)[nH]c1=O (centres unmarked) [ala-AZT-MP, 3′-azido-3′-deoxythymidine-5′-alaninyl phosphate]	–	191	1880	1.2	33.2	20.7 ± 8.5	9.8	4.5	94.5	further intracellular conversion of ala-AZT-MP [5]: converted to AZT first then to AZTmp; efflux of ala-AZT-MP (BT20 cells): only detectable from BT20 cells; Tmax ([3]; plasma, 200 mg/kg, mice, after Compound 003, route not distinguished): < 5 min; further intracellular conversion of ala-AZT-MP [6]: preferentially converted to AZT-MP; intracellular accumulation of ala-AZT-MP, BT20 relative to the other three cell lines ([6]; 25-100 μM Compound 003, 3 hr): 6-12 fold; further intracellular conversion of ala-AZT-MP [7]: only AZT was detectable; level of ala-AZT-MP formation, CEM relative to Nalm6 ([7]; intact cells): 2 fold
